Source: patent US12636279B2, “Choline salt forms of an HIV capsid inhibitor” (Gilead Sciences, Inc., priority 2017, dated 2026)

Legend:
Human Liver Hepatocytes = experiment: Test D: Metabolic Stability in Cultured Human Liver Hepatocytes; type: in vitro ADME; conditions: pooled cryopreserved human hepatocytes, […] radiolabelled compound, 1 million cells/mL, 0-6 hours; calculated from stability data
Experimental: Test D. Metabolic Stability in Cultured Human Liver Hepatocytes
The final hepatocyte concentration was 1 million cells/mL. The hepatocyte/compound reaction mixture was dissolved in InVitroGRO™ KHB buffer (catalog #Z99074, BioreclamationIVT, Inc., Baltimore, MD) at pH 7.4. The incubations were performed in duplicate. A cell free control and a positive control were included in the incubations. The incubations were carried out with gentle shaking in a 37° C. incubator under a humid atmosphere of 95% air/5% CO2 (v/v). Aliquots (100 mL) were removed after 0, 1, 3, and 6 hours and added to 200 mL quenching solution that comprised 0.1% (v/v) TFA in 5% water/95% acetonitrile (v/v). The samples were placed on a shaker for 10 min, followed by centrifugation at 3000 g for 30 min. The samples of the supernatant were analyzed on a Dionex HPLC/PerkinElmer Flow Scintillation Analyzer as described below.
The column was a Phenomenex Synergi fusion RP (150×4.6 mm, 4 mm) maintained at 32 degrees Celsius. Mobile Phase A consisted of 0.1% (v/v) TFA in 99% water/1% acetonitrile (v/v). Mobile Phase B consisted of 0.1% (v/v) TFA in 5% water/95% acetonitrile (v/v). […]
Metabolic stability was determined by measuring the change in relative abundance of metabolites and parent over time and calculating from it the rate of disappearance of the parent compound. […]

[1] = Atropisomer equilibrium and interconversion in solution; type: physicochemical; conditions: rotation along C—C bond between atropisomers
HIV-IIIb = experiment: Test A: Antiviral Assay in MT4 Cells; type: cell-based, HIV-1; conditions: Human immunodeficiency virus 1, IIIB, MT4, 120 h
Experimental: 1 mL Aliquots of MT4 cells were pre-infected for 3 hours at 37° C. with 25 μL of cell growth medium (mock-infected) or a fresh 1:250 dilution of an HIV-IIIb concentrated ABI stock (0.004 m.o.i.). Infected and uninfected cells were diluted in cell growth media and 35 μL (2000 cells) was added to each well of the assay plates.
Assay plates were then maintained in a humidified, 5% CO2 incubator at 37° C. After 5 days of incubation, 25 μL of 2× concentrated CellTiter-Glo™ Reagent (catalog #G7573, Promega Biosciences, Inc., Madison, WI) was added to each well of the assay plate. Cell lysis was carried out by incubating at room temperature for 10 minutes and then chemiluminescence was read using an Envision plate reader (PerkinElmer).

Compound | Predicted Human Hepatic Clearance (Human Liver Hepatocytes) | rotational energy barrier [1] | EC50 (HIV-IIIb)
CC(C)(C#Cc1ccc(-c2ccc(Cl)c3c(NS(C)(=O)=O)nn(CC(F)(F)F)c23)c([C@H](Cc2cc(F)cc(F)c2)NC(=O)Cn2nc(C(F)(F)F)c3c2C(F)(F)[C@@H]2C[C@H]32)n1)S(C)(=O)=O [Compound 1, N—((S)-1-(3-(4-Chloro-3-(methylsulfonamido)-1-(2,2,2-trifluoroethyl)-1H-indazol-7-yl)-6-(3-methyl-3-(methylsulfonyl)but-1-yn-1-yl)pyridin-2-yl)-2-(3,5-difluorophenyl)ethyl)-2-((3bS,4aR)-5,5-difluoro-3-(trifluoromethyl)-3b,4,4a,5-tetrahydro-1H-cyclopropa[3,4]cyclopenta[1,2-c]pyrazol-1-yl)acetamide] | 0.17 mL/min/kg | about 24 kcal/mol | –
Cn1nc(NS(C)(=O)=O)c2c(Cl)ccc(-c3ccc(C#CC(C)(C)O)nc3[C@H](Cc3cc(F)cc(F)c3)NC(=O)Cn3nc(C(F)(F)F)c4c3C(F)(F)[C@@H]3C[C@H]43)c21 [Compound B] | – | – | 2.99 nM
